For experiment [1], the system named is metastases-derived organoids from patients with HR+ BC. Briefly: organoid viability assay. Format: cell-based, human. As to conditions: TMX with STS medium.
Experiment [2] deals with ER transcriptional activity. Briefly: ER luciferase reporter assay and ER target gene expression. Format: cell-based, human. The conditions noted are these: HR+ BC cell lines, TFF1, PGR, GREB1 expression. On the technique in general: A reporter such as luciferase makes a cellular process visible.
Experiment [3] concerns MCF7 cells. Briefly: gene expression microarrays and GSEA in MCF7. The conditions noted are these: 5 μM TMX combined with STS. The format is cell-based, human.
Experiment [4] concerns HR+/HER2− BC cell lines. The conditions noted are these: cited from earlier work.
The test system of experiment [5] is MCF7 cells. Briefly: cell viability assay, control and EGR1-silenced MCF7. The format is cell-based, human.
In experiment [6] the test system is EGR1, PTEN and 4E-BP1 levels in MCF7 cells. Briefly: immunoblotting of EGR1, PTEN and 4E-BP1 in MCF7. The format is cell-based, human. The conditions noted are these: supplementation. The method, then: For protein lysate generation from cultured cells, 5×10^4 MCF7, T47D or ZR-75-1 cells were plated in 6-well plates in CTR medium. After 24 h medium was removed, cells were washed with PBS and incubated either in CTR or STS medium. […] Where indicated, cells were supplemented with insulin ([…]), IGF1 (5 ng/ml), leptin ([…]), or 17β-estradiol (100 nM). 24 h later, cells were washed and protein lysates were generated as described elsewhere^34,35. Protein lysates from primary tumors or mouse uteri were obtained using TissueRuptor (Quiagen). Proteins (35 μg) were separated by SDS-PAGE, transferred to a PVDF membrane (Immobilon-P, Millipore S.p.A.), and detected with the following antibodies: anti-phospho-AKT (Ser473; #4058), anti-AKT (#9272), anti-PTEN (#9552), anti-phospho-p70S6kinase (Thr389; #9206), anti-p70S6kinase (#9202), anti-4E-BP1 (#4923), anti-phospho-eIF4E ([…]; #9741), anti-phospho-RB (Ser807/811; #9308), anti-RB (#9309), anti-CCND1 (#2978) were all from Cell Signaling Technology; anti-phospho-AMPK (Thr172; PA5-2 17831), anti-AMPK (PA5-29679), anti-EGR1 (MA5-15008) were from Thermo Fisher; anti-β-actin was from Santa Cruz Biotechnology. Band intensities were quantified by Quantity One SW software (Bio-Rad Laboratories, Inc.) using standard enhanced chemiluminescence.
For orientation: A western blot detects proteins with antibodies after separation by electrophoresis.

Where two headings read alike, the source gives them in different places.

In the case of `CC/C(=C(\c1ccccc1)c1ccc(OCCN(C)C)cc1)c1ccccc1` [TMX, tamoxifen], the “antitumor activity under STS” value in experiment [1] is “increased the antitumor activity”. The “ER inhibition under STS” value in experiment [2] is “enhanced”. Further, in experiment [3], the “cell cycle-related gene categories (GSEA)” value was “downregulation”. Besides, the “antitumor activity under STS (low-serum, low-glucose)” value in experiment [4] was “increased the antitumor activity”.

As to `C[C@]12CC[C@@H]3c4ccc(O)cc4C[C@@H](CCCCCCCCC[S+]([O-])CCCC(F)(F)C(F)(F)F)[C@H]3[C@@H]1CC[C@@H]2O` (stereo partly drawn) [FULV, fulvestrant], the “ER inhibition under STS” value in experiment [2] is recorded as “enhanced”. In addition, the “antitumor activity under STS (low-serum, low-glucose)” value in experiment [4] is “increased the antitumor activity”.

With `CC(C)NC[C@@H](C(=O)N1CCN(c2ncnc3c2[C@H](C)C[C@H]3O)CC1)c1ccc(Cl)cc1` [GDC0068], the “protection of EGR1-silenced BC cells from combined ET and STS” value in experiment [5] (GDC0068 1 μM, AZD5363 400 nM, LY294002 2 μM) is recorded as “abolished such protection”.

Regarding `C[C@]12CC[C@@H]3c4ccc(O)cc4CC[C@H]3[C@@H]1CC[C@@H]2O` [17β-estradiol], the “increase in EGR1, PTEN and 4E-BP1 induced by the TMX-STS combination” value in experiment [6] is “prevented the increase in EGR1, PTEN and 4E-PBP1”.

As for AZD5363, the “protection of EGR1-silenced BC cells from combined ET and STS” value in experiment [5] is given as “abolished such protection”.

These data come from patent US20240009205A1, “THERAPEUTIC COMBINATION FOR THE TREATMENT OF BREAST CANCER” (IFOM - FONDAZIONE ISTITUTO FIRC DI ONCOLOGIA MOLECOLARE, priority 2020, published 2024).
